Measurements published in patent US10870630B2, “Substituted bicyclic heteroaryl allosteric modulators of nicotinic acetylcholine receptors” (Merck Sharp & Dohme Corp., priority 2016, dated 2020).
pEC50: −log10 of the molar value. Read-outs that look alike come from different tables or passages of the source.

Molecular target: human α7 nicotinic acetylcholine receptor (α7 nAChR) (Homo sapiens, UniProt P36544)
Assay: Automated patch-clamp electrophysiology functional assay (Assay A)
Format: cell-based
Conditions: HEK cell line stably expressing human RIC-3 and human α7, IonFlux HT whole-cell population patch, 40 μM acetylcholine
Description: The α7 nAChR positive allosteric modulator (PAM) activity of the present compounds may be tested using assays known in the art. The α7 nAChR PAMs described herein have activities in an automated patch-clamp electrophysiology functional assay as described in the examples. The assay was performed using the IonFlux HT in a whole-cell, population patch configuration. See Golden et al. Assay Drug Dev. Technol. (2011) 9:608-619. The compounds were assessed for their ability to modulate the function of the human […] nAChR stably expressed in a HEK cell line both in the presence, and in the absence of the natural 07 agonist acetylcholine. By performing a series of such measurements at different concentrations, the effective concentration of the α7 nAChR PAMs (EC50) was determined. See Spencer et al. Assay Drug Dev. Technol. (2012) 10:313-324.
Automated patch-clamp electrophysiology was performed using the IonFlux HT (Fluxion Biosciences Inc., San Francisco, Calif.) in the whole-cell, population patch configuration. Test compounds were assessed for their ability to modulate the function of the α7 nicotinic acetylcholine receptor both in the presence, and in the absence of the natural α7 agonist acetylcholine. A HEK cell line stably expressing both human RIC-3 and human α7 (PrecisION hnAChR α7/RIC-3, Eurofins Pharma, St. Charles, Mo.) was cultured in 175 cm^2 triple-layer tissue culture flasks to no more than 90% confluency in DMEM/F-12 growth media supplemented with 10% heat-inactivated fetal bovine serum, 1% non-essential amino acids, 0.625 μg/mL Puromycin, and 400 μg/mL Geneticin. Immediately prior to assay, cells were detached by first aspirating growth media, rinsing with Dulbecco's phosphate buffered saline, and then adding 10 mL of Accutase (Innovative Cell Technologies, San Diego, Calif.) to the flask and then incubating at 37° C. for 5 minutes. Detached cells were then recovered by the addition of 40 mL of CHO-serum-free media supplemented with 25 mM HEPES, and rocked gently in a 50 mL conical tube for 20 minutes prior to patch-clamp assay. After recovery, cells were pelleted by centrifugation at 1,000 RPM for 1 minute in a compact bench top centrifuge; recovery media was aspirated and cells were resuspended in external recording solution (150 mM NaCl, 5 mM KCl, 2 mM CaCl2, 1 mM MgCl2, 10 mM HEPES, 12 mM dextrose) to a density of 5.0×10^6 cells/mL. The cell suspension was added to the cell inlet wells on an IonFlux HT population patch plate which had previously been rinsed and primed with deionized H2O. Test compounds were serially diluted in DMSO and then resuspended to the final test concentration in external recording solution, with, or without 40 μM acetylcholine added to the external recording solution; test compounds were then transferred to the IonFlux HT population patch plate. Internal recording solution (110 mM TrisPO4, 28 mM TrisBase, 0.1 mM CaCl2, 2 mM MgCl2, 11 mM EGTA, 4 mM MgATP) was added to the internal recording solution inlet wells on the IonFlux HT patch plate previously loaded with cells and test compounds, and the plate loaded into the IonFlux HT instrument. A protocol was executed on the IonFlux HT to trap the cells, break into the cells, and establish the whole-cell recording configuration; cells were voltage-clamped at a holding potential of −60 mV for the duration of the experiment, all experiments were conducted at room temperature, and the IonFlux HT injection pressure was 8 psi for solution applications. Upon establishing the whole-cell configuration, external recording solution was perfused into the recording chambers for 120 seconds and then 40 μM acetylcholine was applied for 1 second and immediately washed off with external recording solution for 60 seconds. The 40 μM acetylcholine-evoked α7 current served as the current response to which subsequent test compound effects, in the presence, or in the absence of 40 μM acetylcholine would be quantified relative to. […]

human α7 nicotinic acetylcholine receptor (α7 nAChR), sequence (P36544 23-502): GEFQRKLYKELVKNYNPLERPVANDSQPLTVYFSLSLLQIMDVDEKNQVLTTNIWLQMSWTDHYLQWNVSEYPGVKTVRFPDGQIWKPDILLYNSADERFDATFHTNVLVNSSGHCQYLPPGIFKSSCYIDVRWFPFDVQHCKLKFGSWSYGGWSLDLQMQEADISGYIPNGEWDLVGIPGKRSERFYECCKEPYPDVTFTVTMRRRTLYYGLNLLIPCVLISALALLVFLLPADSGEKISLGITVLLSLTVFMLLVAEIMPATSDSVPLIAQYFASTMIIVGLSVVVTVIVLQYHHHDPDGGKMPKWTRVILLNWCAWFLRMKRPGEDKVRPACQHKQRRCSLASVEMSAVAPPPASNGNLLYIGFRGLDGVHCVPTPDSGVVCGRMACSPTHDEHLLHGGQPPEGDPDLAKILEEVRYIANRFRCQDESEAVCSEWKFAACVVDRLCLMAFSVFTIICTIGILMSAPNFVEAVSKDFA

| pEC50 (read-out: α7 nAChR EC50) | pEC50 (read-out: α7 nAChR Potency) | Compound |
| --- | --- | --- |
| 6.08 | 5.30 to 6.30 | COc1cccc2oc([C@H]3[C@H](c4ccc(S(N)(=O)=O)cc4)C3(C)C)nc12 [Example A1, 4-[(1S,3S)-3-(4-Methoxy-1,3-benzoxazol-2-yl)-2,2-dimethyl-cyclopropyl]benzenesulfonamide] |
| 7.22 | ≥ 7.00 | NS(=O)(=O)c1ccc([C@@H]2C[C@H]2c2nc3ccc(F)cc3o2)cc1 [Example A2, 4-[(1R,2R)-2-(6-Fluoro-1,3-benzoxazol-2-yl)cyclopropyl]benzenesulfonamide] |
| 6.02 | 5.30 to 6.30 | CC1(C)[C@@H](c2ccc(S(N)(=O)=O)cc2)[C@@H]1c1nc2c(F)cc(F)cc2s1 [Example A3, 4-[(1S,3S)-3-(4,6-Difluoro-1,3-benzothiazol-2-yl)-2,2-dimethyl-cyclopropyl]benzenesulfonamide] |
| 6.55 | 6.30 to 7.00 | CC1(C)[C@@H](c2ccc(S(N)(=O)=O)cc2)[C@@H]1c1nc2ccccc2o1 [Example A4, 4-[(1S,3S)-3-(1,3-Benzoxazol-2-yl)-2,2-dimethyl-cyclopropyl]benzenesulfonamide] |
| 5.92 | 5.30 to 6.30 | CC1(C)[C@@H](c2ccc(S(N)(=O)=O)cc2)[C@@H]1c1nc2ccc(Cl)cc2o1 [Example A5, 4-[(1S,3S)-3-(6-Chloro-1,3-benzoxazol-2-yl)-2,2-dimethyl-cyclopropyl]benzenesulfonamide] |
| 6.37 | 6.30 to 7.00 | CC1(C)[C@@H](c2ccc(S(N)(=O)=O)cc2)[C@@H]1c1nc2cc(Cl)ccc2o1 [Example A6, 4-[(1S,3S)-3-(5-Chloro-1,3-benzoxazol-2-yl)-2,2-dimethyl-cyclopropyl]benzenesulfonamide] |
| 7.28 | ≥ 7.00 | NS(=O)(=O)c1ccc([C@H]2[C@H](c3nc4ccccc4o3)C2(F)F)cc1 [Example A7, 4-[(1R,3R)-3-(1,3-Benzoxazol-2-yl)-2,2-difluoro-cyclopropyl]benzenesulfonamide] |
| 7.42 | ≥ 7.00 | NS(=O)(=O)c1ccc([C@H]2[C@H](c3nc4ccccc4s3)C2(F)F)cc1 [Example A8, 4-[(1R,3S)-3-(1,3-Benzothiazol-2-yl)-2,2-difluoro-cyclopropyl]benzenesulfonamide] |
|  | 5.30 to 6.30 | NS(=O)(=O)c1ccc([C@H]2[C@H](c3nc4ccccc4[nH]3)C2(F)F)cc1 [Example A9, 4-[(1R,3R)-3-(1H-Benzimidazol-2-yl)-2,2-difluorocyclopropyl]benzenesulfonamide] |
|  | 6.30 to 7.00 | CC1(C)[C@H](c2ccc(S(N)(=O)=O)cc2)[C@H]1c1nc2c(F)cc(F)cc2o1 [Example B1, 4-[(1R,3R)-3-(4,6-Difluoro-1,3-benzoxazol-2-yl)-2,2-dimethyl-cyclopropyl]benzenesulfonamide] |
| 6.52 | 6.30 to 7.00 | CC1(C)[C@H](c2ccc(S(N)(=O)=O)cc2)[C@H]1c1nc2ccc(F)cc2o1 [Example B2, 4-[(1R,3R)-3-(6-Fluoro-1,3-benzoxazol-2-yl)-2,2-dimethyl-cyclopropyl]benzenesulfonamide] |
| 5.47 | 5.30 to 6.30 | CC1(C)[C@H](c2ccc(S(N)(=O)=O)cc2)[C@H]1c1nc2ccccc2s1 [Example B3, 4-[(1R,3R)-3-(1,3-Benzothiazol-2-yl)-2,2-dimethyl-cyclopropyl]benzenesulfonamide] |
|  | 5.30 to 6.30 | NS(=O)(=O)c1ccc([C@H]2C[C@@H]2c2nc3ccccc3o2)cc1 [Example B4, 4-[(1S,2S)-2-(1,3-Benzoxazol-2-yl)cyclopropyl]benzenesulfonamide] |
|  | 6.30 to 7.00 | CC1(C)[C@H](c2ccc(S(N)(=O)=O)cc2)[C@H]1c1nc2ccc(Cl)cc2o1 [Example B5, 4-[(1R,3R)-3-(6-Chloro-1,3-benzoxazol-2-yl)-2,2-dimethyl-cyclopropyl]benzenesulfonamide] |
| 6.70 | 6.30 to 7.00 | CC1(C)[C@H](c2ccc(S(N)(=O)=O)cc2)[C@H]1c1nc2cc(Cl)ccc2o1 [Example B6, 4-[(1R,3R)-3-(5-Chloro-1,3-benzoxazol-2-yl)-2,2-dimethyl-cyclopropyl]benzenesulfonamide] |
| 5.38 | 5.30 to 6.30 | NS(=O)(=O)c1ccc([C@H]2C[C@@H]2c2nc3ccc(F)cc3o2)cc1 [Example B7, 4-[(1 S,2S)-2-(6-Fluoro-1,3-benzoxazol-2-yl)cyclopropyl]benzenesulfonamide] |
|  | 6.30 to 7.00 | CC1(C)[C@H](c2ccc(S(N)(=O)=O)cc2)[C@H]1c1nc2c(F)cc(F)cc2s1 [Example B8, 4-[(1R,3R)-3-(4,6-Difluoro-1,3-benzothiazol-2-yl)-2,2-dimethyl-cyclopropyl]benzenesulfonamide] |
| 6.77 | 6.30 to 7.00 | CC1(C)[C@H](c2ccc(S(N)(=O)=O)cc2)[C@H]1c1nc2ccc(F)cc2s1 [Example B9, 4-[(1R,3R)-3-(6-Fluoro-1,3-benzothiazol-2-yl)-2,2-dimethyl-cyclopropyl]benzenesulfonamide] |

Further lines, the compound ahead of its results:

| Compound | pEC50 (read-out: α7 nAChR EC50) | pEC50 (read-out: α7 nAChR Potency) |
| --- | --- | --- |
| NS(=O)(=O)c1ccc([C@@H]2C[C@H]2c2nc3c(o2)CCCC3)cc1 [Example 4, 4-[(1R,2R)-2-(4,5,6,7-Tetrahydro-1,3-benzoxazol-2-yl)cyclopropyl]benzenesulfonamide] | 6.21 | 5.30 to 6.30 |
| NS(=O)(=O)c1ccc([C@@H]2C[C@H]2c2nc3ccccc3o2)cc1 [Example 5, 4-[(1R,2R)-2-(1,3-Benzoxazol-2-yl)cyclopropyl]benzenesulfonamide] | 6.80 | 6.30 to 7.00 |
| CC1(C)[C@H](c2ccc(S(N)(=O)=O)cc2)[C@H]1c1nc2cccnc2o1 [Example 6, 4-[(1R,3R)-2,2-Dimethyl-3-([1,3]oxazolo[5,4-b]pyridin-2-yl)cyclopropyl]benzenesulfonamide] | 5.47 | 5.30 to 6.30 |
| CC1(C)[C@H](c2ccc(S(N)(=O)=O)cc2)[C@H]1c1cn2ncccc2n1 [Example 8, 4-((1R,3R)-3-(Imidazo[1,2-b]pyridazin-2-yl)-2,2-dimethylcyclopropyl)benzenesulfonamide] | 5.42 | 5.30 to 6.30 |
| CC1(C)[C@@H](c2ccc(S(N)(=O)=O)cc2)[C@@H]1c1nc2ccccc2s1 [Example 9] | 6.46 | 6.30 to 7.00 |
| CC1(C)[C@@H](c2ccc(S(N)(=O)=O)cc2)[C@@H]1c1nc2ccc(F)cc2s1 [Example 10, 4-((1S,3S)-3-(6-Fluorobenzo[d]thiazol-2-yl)-2,2-dimethylcyclopropyl)benzenesulfonamide] | 6.35 | 6.30 to 7.00 |
| CC1(C)[C@H](c2ccc(S(N)(=O)=O)cc2)[C@H]1c1nc2c(o1)CCC2 [Example 11, 4-[(1R,3R)-3-(5,6-Dihydro-4H-cyclopenta[d][1,3]oxazol-2-yl)-2,2-dimethylcyclopropyl]benzenesulfonamide] | 5.70 | 5.30 to 6.30 |
| CC1(C)[C@H](c2ccc(S(N)(=O)=O)cc2)[C@H]1c1ncc2c(n1)CCCC2 [Example 12, 4-[(R,3R)-2,2-Dimethyl-3-(5,6,7,8-tetrahydroquinazolin-2-yl)cyclopropyl]benzenesulfonamide] | 5.60 | 5.30 to 6.30 |
| CC1(C)OC([C@H]2[C@H](c3ccc(S(N)(=O)=O)cc3)C2(F)F)=Nc2ccccc21 [Example 13, 4-[(1R,3R)-3-(4,4-Dimethyl-4H-3,1-benzoxazin-2-yl)-2,2-difluorocyclopropyl]benzenesulfonamide] | 5.74 | 5.30 to 6.30 |
